# Patent US20110071155A1, “Tricyclic Nitrogen Containing Compounds And Their Use As Antibacterials” (priority 2008, published 2011)
# Columns and labels:
# [1] = Antimicrobial Activity Assay: whole-cell broth microdilution (CLSI M7-A7); type: cell-based, Gram-positive and Gram-negative organisms; conditions: at least one of S. aureus, S. pneumoniae, E. faecalis, H. influenzae, M. catarrhalis, E. coli, read-out: MIC against at least one of the organisms listed
# Method: Antimicrobial Activity Assay: Whole-cell antimicrobial activity was determined by broth microdilution using the Clinical Laboratory Standards Institute (CLSI) recommended procedure, Document M7-A7, “Methods for Dilution Susceptibility Tests for Bacteria that Grow Aerobically”. Compounds were evaluated against Gram-positive organisms, including Staphylococcus aureus, Streptococcus pneumoniae, and Enterococcus faecalis. In addition, compounds were evaluated against Gram-negative organisms including Haemophilus influenzae, Moraxella catarrhalis, and Escherichia coli. The minimum inhibitory concentration (MIC) was determined as the lowest concentration of compound that inhibited visible growth. A mirror reader was used to assist in determining the MIC endpoint.
# [2] = system: Mycobacterium tuberculosis H37Rv; test: Mycobacterium tuberculosis H37Rv Inhibition Assay (resazurin MIC); type: cell-based; conditions: ATCC 25618 / H37Rv, H37Rv strain (ATCC25618), Middlebrook 7H9+ADC, six days at 37° C., resazurin fluorescence after 48 hours, read-out: MtB MIC
Structure (SMILES),MIC [1] [µg/mL],MIC [2] [µg/mL]
"O=c1ccc2ccc(=O)n3c2n1C[C@H]3CN1CCC(NC/C=C/c2cc(F)ccc2F)CC1 [Example 1, (1R)-1-[(4-{[(2E)-3-(2,5-difluorophenyl)-2-propen-1-yl]amino}-1-piperidinyl)methyl]-1,2-dihydro-4H,9H-imidazo[1,2,3-ij]-1,8-naphthyridine-4,9-dione]",< 2,0.071
"O=c1ccc2ncc(=O)n3c2n1CC3CN1CCC(NC/C=C/c2cccc(F)c2)CC1 (stereo not drawn) [Example 2, 2-[(4-{[(2E)-3-(3-fluorophenyl)-2-propen-1-yl]amino}-1-piperidinyl)methyl]-1,2-dihydro-3H,8H-2a,5,8a-triazaacenaphthylene-3,8-dione]",< 2,0.102
"O=c1ccc2ncc(=O)n3c2n1CC3CN1CCC(NCCCc2cccc(F)c2)CC1 (stereo not drawn) [Example 3, 2-[(4-{[3-(3-fluorophenyl)propyl]amino}-1-piperidinyl)methyl]-1,2-dihydro-3H,8H-2a,5,8a-triazaacenaphthylene-3,8-dione]",< 2,0.82
"O=c1ccc2ccc(=O)n3c2n1C[C@H]3CN1CCC(NC/C=C/c2cncc(F)c2)CC1 [Example 4, (1R)-1-[(4-{[(2E)-3-(5-fluoro-3-pyridinyl)-2-propen-1-yl]amino}-1-piperidinyl)methyl]-1,2-dihydro-4H,9H-imidazo[1,2,3-ij]-1,8-naphthyridine-4,9-dione]",< 2,0.544
"O=c1ccc2ncc(=O)n3c2n1CC3CN1CCC(NC/C=C/c2cncc(F)c2)CC1 (stereo not drawn) [Example 5, 2-[(4-{[(2E)-3-(5-fluoro-3-pyridinyl)-2-propen-1-yl]amino}-1-piperidinyl)methyl]-1,2-dihydro-3H,8H-2a,5,8a-triazaacenaphthylene-3,8-dione]",–,0.273
"O=c1ccc2ncc(=O)n3c2n1CC3CN1CCC(NCCOc2cccc(F)c2)CC1 (stereo not drawn) [Example 6, 2-{[4-({2-[(3-fluorophenyl)oxy]ethyl}amino)-1-piperidinyl]methyl}-1,2-dihydro-3H,8H-2a,5,8a-triazaacenaphthylene-3,8-dione]",< 2,0.824
"O=c1ccc2ncc(=O)n3c2n1CC3CN1CCC(NCCNc2cccc(F)c2)CC1 (stereo not drawn) [Example 7, 2-{[4-({2-[(3-Fluorophenyl)amino]ethyl}amino)-1-piperidinyl]methyl}-1,2-dihydro-3H,8H-2a,5,8a-triazaacenaphthylene-3,8-dione]",–,0.071
